Measurements: paper PMC8533391 (2021)

Test system: d(GTTAATCGCTGG) double-stranded DNA 12-oligomer (DNA, duplex) GTTAATCGCTGG/CCAGCGATTAAC
Assay: UV melting at 260 nm
Settings: Na+ (0.05 mM NaOH), 10 μM compound, 2.5 μM DNA, cacodylate, pH 7.2

| ΔTm (derived from two Tm (47.4 ± 0.6, free 48.3 ± 0.3)) | ΔTm (derived from two Tm (46.2 ± 0.8, free 48.3 ± 0.3)) | Structure (SMILES) |
| --- | --- | --- |
| -0.9 °C | – | C(=N\[C@H]1CC[C@H](/N=C/c2nccs2)CC1)/c1nccs1 |
| – | -2.1 °C | C(=N\[C@H]1CC[C@H](/N=C/c2nccs2)CC1)/c1nccs1.C(=N\[C@H]1CC[C@H](/N=C/c2nccs2)CC1)/c1nccs1.[Ag+].[Ag+] |
